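Exposure lasted 48 hours, with cells grown in 96-well plates and compounds tested at five concentrations. At the GI50, growth is halved.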 Calls of active or inactive are those of the source. Cut-off read from the data, not from the text of the source: active = GI50 up to about 1.1 µM and inactive = higher. *1 amine or outer side, *2 acyl side, *3 side chain or, on linkers, in order; H or OH if unused. Where a SMILES comes first, the peptide text is derived from it. Bridges are numbered along the chain shown (N, C = ends). [ ]: non-standard residue; d: D form. The star is where a group is joined. X36 = O=C(C(CCCCNO[*:3])N[*:1])[*:2]; Fmoc = O=C(OCC1c2ccccc2-c2ccccc21)*
How the values were obtained:
Assay in all cases: growth of human tumour cells (NCI), 48 h
[1] = test system: MDA-MB-435
[2] = test system: 786-0
[3] = test system: HCT-15
[4] = test system: ACHN
[5] = test system: HL-60
[6] = test system: SNB-75
[7] = test system: SF-268
[8] = test system: Malme-3M
[9] = test system: T47D
[10] = test system: OVCAR-5
[11] = test system: HCT-116
[12] = test system: M14
[13] = test system: SF-539
[14] = test system: BT-549
[15] = test system: KM12
[16] = test system: SF-295
[17] = test system: SR
[18] = test system: HOP-92
[19] = test system: U-251
[20] = test system: SK-MEL-5

For `O=C(CC1C(=O)Nc2ccccc2[S+]1[O-])Nc1cccc(Cl)c1` (stereo not given), the GI50 [1] was 27.9 µM (inactive), the GI50 [2] was 37.2 µM (inactive) and the GI50 [3] was 27.1 µM. For the same compound, the GI50 [4] was 33.7 µM (inactive), the GI50 [5] was > 33.5 µM (inactive) and the GI50 [6] was 16.4 µM (inactive). The GI50 [7] was 55.1 µM (inactive), the GI50 [8] was > 55.6 µM (inactive) and the GI50 [9] was 11.2 µM (inactive). The GI50 [10] was > 62.7 µM (inactive), the GI50 [11] was 31.6 µM (inactive) and the GI50 [12] was > 42.4 µM (inactive). For the same compound, the GI50 [13] was 18.6 µM (inactive), the GI50 [14] was 26.3 µM (inactive) and the GI50 [15] was > 57.9 µM (inactive). The GI50 [16] was 41.9 µM (inactive), the GI50 [17] was 4.93 µM (inactive) and the GI50 [18] was 19.5 µM (inactive). The GI50 [19] was 33.7 µM (inactive) and the GI50 [20] was > 30.9 µM (inactive).
`CCOP(=O)(OCC)/C(C#N)=C/c1ccc(-c2ccc(F)cc2F)o1` was tested, and the GI50 [1] was 12.6 µM (inactive), the GI50 [2] was 13.9 µM (inactive) and the GI50 [3] was 13.5 µM. For the same compound, the GI50 [4] was 13.3 µM (inactive), the GI50 [5] was 12.3 µM (inactive) and the GI50 [6] was 18.5 µM (inactive). For the same compound, the GI50 [7] was 17.3 µM (inactive), the GI50 [8] was 18.4 µM (inactive) and the GI50 [9] was 3.3 µM (inactive). For the same compound, the GI50 [10] was 17.3 µM (inactive), the GI50 [11] was 17.4 µM (inactive) and the GI50 [12] was 17.2 µM (inactive). For the same compound, the GI50 [13] was 20.7 µM (inactive), the GI50 [14] was 11.7 µM (inactive) and the GI50 [15] was 16 µM (inactive). The GI50 [16] was 16.4 µM (inactive), the GI50 [17] was 15 µM (inactive) and the GI50 [18] was 15.2 µM (inactive). The GI50 [19] was 14.8 µM (inactive) and the GI50 [20] was 10.6 µM (inactive).
In the case of `NC(=O)CNC(=O)C1CCCN1C(=O)C1CCCCNOC(=O)CCC(NC(=O)OCC2c3ccccc3-c3ccccc32)C(=O)NC(Cc2c[nH]c3ccccc23)C(=O)N1` (stereo not given) (Fmoc-EW[X36]PG-NH2; ester 1-3; configuration not given here), the GI50 [1] was > 100 µM (inactive), the GI50 [2] was > 100 µM (inactive) and the GI50 [3] was over 100 µM. For the same compound, the GI50 [4] was > 100 µM (inactive), the GI50 [5] was > 100 µM (inactive) and the GI50 [6] was > 100 µM (inactive). The GI50 [7] was > 100 µM (inactive), the GI50 [8] was > 100 µM (inactive) and the GI50 [9] was > 100 µM (inactive). For the same compound, the GI50 [10] was > 100 µM (inactive), the GI50 [11] was > 100 µM (inactive) and the GI50 [12] was 54.3 µM (inactive). For the same compound, the GI50 [13] was > 100 µM (inactive), the GI50 [14] was > 100 µM (inactive) and the GI50 [15] was > 100 µM (inactive). For the same compound, the GI50 [16] was > 100 µM (inactive), the GI50 [17] was > 100 µM (inactive) and the GI50 [18] was > 100 µM (inactive). For the same compound, the GI50 [19] was > 100 µM (inactive) and the GI50 [20] was > 100 µM (inactive).
`c1ccc2c(c1)cc1n2CCc2c-1[nH]c1ccccc21` was tested, and the GI50 [1] was > 10 µM (inactive), the GI50 [2] was > 10 µM (inactive) and the GI50 [3] was 5.12 µM. For the same compound, the GI50 [4] was > 10 µM (inactive), the GI50 [5] was > 10 µM (inactive) and the GI50 [6] was > 10 µM (inactive). The GI50 [7] was > 10 µM (inactive), the GI50 [8] was > 10 µM (inactive) and the GI50 [9] was 3.01 µM (inactive). For the same compound, the GI50 [10] was > 10 µM (inactive), the GI50 [11] was > 10 µM (inactive) and the GI50 [12] was > 10 µM (inactive). For the same compound, the GI50 [13] was > 10 µM (inactive), the GI50 [14] was > 10 µM (inactive) and the GI50 [15] was > 10 µM (inactive). The GI50 [16] was > 10 µM (inactive), the GI50 [17] was > 10 µM (inactive) and the GI50 [18] was > 10 µM (inactive). The GI50 [19] was > 10 µM (inactive) and the GI50 [20] was > 10 µM (inactive).
`O=C(O)c1ccccc1-c1ccccc1C(=O)c1ccccc1` was tested, and the GI50 [1] was > 100 µM (inactive), the GI50 [2] was > 100 µM (inactive) and the GI50 [3] was over 100 µM. For the same compound, the GI50 [4] was > 100 µM (inactive), the GI50 [5] was > 100 µM (inactive) and the GI50 [6] was > 100 µM (inactive). For the same compound, the GI50 [7] was > 100 µM (inactive), the GI50 [8] was > 100 µM (inactive) and the GI50 [9] was > 100 µM (inactive). For the same compound, the GI50 [10] was > 100 µM (inactive), the GI50 [11] was > 100 µM (inactive) and the GI50 [12] was > 100 µM (inactive). For the same compound, the GI50 [13] was > 100 µM (inactive), the GI50 [14] was > 100 µM (inactive) and the GI50 [15] was > 100 µM (inactive). For the same compound, the GI50 [16] was > 100 µM (inactive), the GI50 [17] was > 100 µM (inactive) and the GI50 [18] was 51.6 µM (inactive). For the same compound, the GI50 [19] was > 100 µM (inactive) and the GI50 [20] was > 100 µM (inactive).
For `Nc1ccc2c(SCC(=O)Nc3ccccc3-c3ccccc3NC(=O)CSc3c4ccccc4nc4cc(N)ccc34)c3ccccc3nc2c1`, the GI50 [1] was 22.1 µM (inactive), the GI50 [2] was 25.3 µM (inactive) and the GI50 [3] was 31.1 µM. For the same compound, the GI50 [4] was 32.8 µM (inactive), the GI50 [5] was 3.21 µM (inactive) and the GI50 [6] was 38.5 µM (inactive). For the same compound, the GI50 [7] was 37.1 µM (inactive), the GI50 [8] was 22.9 µM (inactive) and the GI50 [9] was 3.05 µM (inactive). For the same compound, the GI50 [10] was 70 µM (inactive), the GI50 [11] was 24.5 µM (inactive) and the GI50 [12] was 24.4 µM (inactive). The GI50 [13] was 32.1 µM (inactive), the GI50 [14] was 42 µM (inactive) and the GI50 [15] was 19.5 µM (inactive). For the same compound, the GI50 [16] was 31.5 µM (inactive), the GI50 [17] was 4.19 µM (inactive) and the GI50 [18] was 43.5 µM (inactive). For the same compound, the GI50 [19] was 22 µM (inactive) and the GI50 [20] was 14.6 µM (inactive).
For `CC(=O)c1ccc(Oc2c3ccccc3nc3ccccc23)cc1`, the GI50 [1] was 3.27 µM (inactive), the GI50 [2] was 3.4 µM (inactive) and the GI50 [3] was 4.01 µM. The GI50 [4] was 4.15 µM (inactive), the GI50 [5] was 0.207 µM (active) and the GI50 [6] was 16.1 µM (inactive). For the same compound, the GI50 [7] was 5.18 µM (inactive), the GI50 [8] was 12.6 µM (inactive) and the GI50 [9] was 3.72 µM (inactive). For the same compound, the GI50 [10] was 9.68 µM (inactive), the GI50 [11] was 2.7 µM (inactive) and the GI50 [12] was 4.35 µM (inactive). The GI50 [13] was 2.3 µM (inactive), the GI50 [14] was 12.5 µM (inactive) and the GI50 [15] was 7 µM (inactive). The GI50 [16] was 14.6 µM (inactive), the GI50 [17] was 1.01 µM (active) and the GI50 [18] was 12.4 µM (inactive). For the same compound, the GI50 [19] was 11.6 µM (inactive) and the GI50 [20] was 14.9 µM (inactive).
In the case of `O=C1c2cccc3cccc(c23)C(=O)N1CCCNCCCCNCCCN1C(=O)c2cccc3cccc(c23)C1=O`, the GI50 [1] was 0.159 µM (active), the GI50 [2] was 0.0311 µM (active) and the GI50 [3] was 3.22 µM. The GI50 [4] was 0.757 µM (active), the GI50 [5] was 0.32 µM (active) and the GI50 [6] was 0.202 µM (active). For the same compound, the GI50 [7] was 0.025 µM (active), the GI50 [8] was 0.144 µM (active) and the GI50 [9] was 0.515 µM (active). The GI50 [10] was 0.316 µM (active), the GI50 [11] was 0.0738 µM (active) and the GI50 [12] was 0.604 µM (active). For the same compound, the GI50 [13] was 0.0843 µM (active), the GI50 [14] was 1.25 µM (inactive) and the GI50 [15] was 0.108 µM (active). For the same compound, the GI50 [16] was 0.658 µM (active), the GI50 [17] was < 0.01 µM (active) and the GI50 [18] was 0.18 µM (active). The GI50 [19] was 0.0402 µM (active) and the GI50 [20] was 0.644 µM (active).

Reference: ChEMBL document CHEMBL1201862, “PubChem BioAssay data set” (2004)
